Measurements as given in patent US11384063B2, “Modulators of estrogen receptor proteolysis and associated methods of use” (Arvinas Operations, Inc., priority 2017, dated 2022).
Where two headings read alike, the source gives them in different places.

Molecular target: T1, ERα (Homo sapiens, UniProt P03372)
T1 sequence (P03372 1-595): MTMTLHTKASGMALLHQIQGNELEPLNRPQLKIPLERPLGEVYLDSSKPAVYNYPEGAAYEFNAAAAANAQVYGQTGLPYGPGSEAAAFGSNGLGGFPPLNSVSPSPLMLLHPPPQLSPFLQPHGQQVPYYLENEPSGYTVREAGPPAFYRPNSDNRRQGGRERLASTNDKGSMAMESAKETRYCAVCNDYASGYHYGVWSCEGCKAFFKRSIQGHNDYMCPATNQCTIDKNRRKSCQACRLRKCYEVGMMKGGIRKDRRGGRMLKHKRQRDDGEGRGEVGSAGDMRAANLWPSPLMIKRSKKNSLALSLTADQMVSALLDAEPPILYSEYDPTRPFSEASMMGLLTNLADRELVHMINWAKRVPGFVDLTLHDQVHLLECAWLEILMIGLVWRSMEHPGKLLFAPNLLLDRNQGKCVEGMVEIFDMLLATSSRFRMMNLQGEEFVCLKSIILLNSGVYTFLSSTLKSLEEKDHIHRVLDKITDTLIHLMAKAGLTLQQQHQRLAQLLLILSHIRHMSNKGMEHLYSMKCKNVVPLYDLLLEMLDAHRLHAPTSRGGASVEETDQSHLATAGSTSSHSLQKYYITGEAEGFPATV
Experiment: ERE luciferase reporter gene assay in T47D-KBluc cells (target engagement)
Type: cell-based
Parameters: T47D human breast cancer cells stably transfected with estrogen responsive element/promoter/luciferase reporter gene; host or cells: T47D-KBluc cells
Details: 10% FBS, 24 hours
Protocol: Chimeric molecules were assessed for target engagement in T47D cells using the commercial kit of ERE luciferase reporter gene assay. In the assay, 10% FBS was included and estrogen level was measured to be 10 pM.
ERE Luciferase Assay for Compounds in Table 1-3.
T47D-KBluc cells (ATCC #CRL_2865, T47D human breast cancer cells stably transfected with estrogen responsive element/promoter/luciferase reporter gene) were seeded into 96-well white opaque plates in RPMI growth medium supplemented with 10% fetal bovine serum and allowed to adhere overnight in a 37° C. humidified incubator. The following day, cells were treated with PROTACs in a 12-point concentration curve (top final concentration of 300 nM with subsequent concentrations being 3-fold less with 2 pM being the lowest concentration in the assay). Each PROTAC was tested independently in two experiments on 96-well plates. After 24 hours, media was removed and lysis buffer was added to the wells. Following lysis, Bright-Glo™ Luciferase Assay Substrate (Prornega, Madison Wis.) was added and the luciferase activity was measured using a Cytation 3 plate reader (TioTek™, Winooski, Vt.). Each compound was assayed in duplicates and the activity was calculated as IC50 using GraphPad Prism software (San Diego, Calif.).

[1] = Table 1 cereblon centric PROTACs, read-out: ER-α Luciferase IC50
[2] = Table 3 cereblon centric PROTACs, read-out: ER-α Luciferase IC50
[3] = Table 2 VHL centric PROTACs, read-out: IC50

| SMILES | IC50 [1] | further results |
| --- | --- | --- |
| O=C1CCC(N2Cc3cc(N4CCN(CCCOc5ccc(Oc6c(-c7ccc(Br)cc7)sc7cc(O)ccc67)cc5)CC4)ccc3C2=O)C(=O)N1 (centres unmarked) [Compound 59] | 3.6 nM | – |
| O=C1CCC(N2Cc3cc(NCCCOCCCOCCCCOc4ccc(Oc5c(-c6ccc(Br)cc6)sc6cc(O)ccc56)cc4)ccc3C2=O)C(=O)N1 (centres unmarked) [Compound 173] | – | IC50 [2]: 8 nM |
| O=C1CCC(N2Cc3cc(N4CCN(CCCOc5ccc(Oc6c(-c7ccc(C(F)(F)F)cc7)sc7cc(O)ccc67)cc5)CC4)ccc3C2=O)C(=O)N1 (centres unmarked) [Compound 207] | – | IC50 [2]: 11.4 nM |
| O=C1CCC(N2Cc3cc(N4CCC(CN5CCC(Oc6ccc(Oc7c(-c8ccc(C(F)(F)F)cc8)sc8cc(O)ccc78)cc6)CC5)CC4)ccc3C2=O)C(=O)N1 (centres unmarked) [Compound 187] | – | IC50 [2]: 5.1 nM |
| O=C1CCC(N2Cc3c(NCCN4CCN(CCOc5ccc(Oc6c(-c7ccc(Br)cc7)sc7cc(O)ccc67)cc5)CC4)cccc3C2=O)C(=O)N1 (centres unmarked) [Compound 5] | 0.9 nM | – |
| Cc1ncsc1-c1ccc(CNC(=O)[C@@H]2C[C@@H](O)CN2C(=O)[C@@H](NC(=O)CCC(=O)N2CC3CN(CCOc4ccc(Oc5c(-c6ccc(F)cc6)sc6cc(O)ccc56)cc4)CC3C2)C(C)(C)C)cc1 (some centres unmarked) [Compound 115] | – | IC50 [3]: > 100 nM |
| O=C1CCC(N2C(=O)c3ccc(CCCOC4CCN(CCOc5ccc(Oc6c(-c7ccc(Br)cc7)sc7cc(O)ccc67)cc5)CC4)cc3C2=O)C(=O)N1 (centres unmarked) [Compound 70] | 1.6 nM | – |
| O=C1CCC(N2Cc3cc(NCCOCCOCCOc4ccc(Oc5c(-c6ccc(Br)cc6)sc6cc(O)ccc56)cc4)ccc3C2=O)C(=O)N1 (centres unmarked) [Compound 86] | 11 nM | – |
| O=C1CCC(N2C(=O)c3cccc(NCCOCCOCCOc4ccc(Oc5c(-c6ccc(Br)cc6)sc6cc(O)ccc56)cc4)c3C2=O)C(=O)N1 (centres unmarked) [Compound 26] | 9.7 nM | – |
| O=C1CC[C@H](N2Cc3cc(OCCOC4CCN(CCOc5ccc(Oc6c(-c7ccc(Br)cc7)sc7cc(O)ccc67)cc5)CC4)ccc3C2=O)C(=O)N1 [Compound 44] | 0.54 nM | – |
| O=C1CCC(N2C(=O)c3ccc(OCCCOCCCOCCCOc4ccc(Oc5c(-c6ccc(Br)cc6)sc6cc(O)ccc56)cc4)cc3C2=O)C(=O)N1 (centres unmarked) [Compound 80] | 37.4 nM | – |
| O=C1CCC(N2C(=O)c3ccc(OCCCOCCOc4ccc(Oc5c(-c6ccc(Br)cc6)sc6cc(O)ccc56)cc4)cc3C2=O)C(=O)N1 (centres unmarked) [Compound 76] | 17 nM | – |
| C[C@H](NC(=O)[C@@H]1C[C@@H](O)CN1C(=O)[C@@H](NC(=O)COCCOCCOCCOc1ccc(Oc2c(-c3ccc(F)cc3)sc3cc(O)ccc23)cc1)C(C)(C)C)c1ccc(C#N)cc1 [Compound 132] | – | IC50 [3]: 1.3 nM |
| Cc1ncsc1-c1ccc(CNC(=O)[C@@H]2C[C@@H](O)CN2C(=O)[C@@H](NC(=O)CCCC(=O)N2CCN(CCOc3ccc(Oc4c(-c5ccc(F)cc5)sc5cc(O)ccc45)cc3)CC2)C(C)(C)C)cc1 [Compound 114] | – | IC50 [3]: 22 nM |
| O=C1CCC(N2C(=O)c3ccc(N4CCN(CCCCCCCOc5ccc(Oc6c(-c7ccc(Br)cc7)sc7cc(O)ccc67)cc5)CC4)cc3C2=O)C(=O)N1 (centres unmarked) [Compound 69] | 103 nM | – |
| O=C1CCC(N2Cc3c(NCCOCCOCCOCCOCCOc4ccc(Oc5c(-c6ccc(Br)cc6)sc6cc(O)ccc56)cc4)cccc3C2=O)C(=O)N1 (centres unmarked) [Compound 18] | 81.4 nM | – |
| O=C1CCC(N2C(=O)c3ccc(N4CCN(CCCCCCOc5ccc(Oc6c(-c7ccc(Br)cc7)sc7cc(O)ccc67)cc5)CC4)cc3C2=O)C(=O)N1 (centres unmarked) [Compound 51] | 26.2 nM | – |
| O=C1CCC(N2Cc3cc(N4CCN(CCCOc5ccc(Oc6c(-c7ccc(Br)cc7)sc7cc(O)ccc67)cc5)CC4)cc(F)c3C2=O)C(=O)N1 (centres unmarked) [Compound 222] | – | IC50 [2]: 8.9 nM |
| O=C1CCC(N2C(=O)c3ccc(N4CCN(CC5CCN(CCOc6ccc(Oc7c(-c8ccc(C(F)(F)F)cc8)sc8cc(O)ccc78)cc6)CC5)CC4)cc3C2=O)C(=O)N1 (centres unmarked) [Compound 202] | – | IC50 [2]: 14.8 nM |
| O=C1CCC(N2C(=O)c3ccc(OCCCOCCCOCCCCOc4ccc(Oc5c(-c6ccc(Br)cc6)sc6cc(O)ccc56)cc4)cc3C2=O)C(=O)N1 (centres unmarked) [Compound 175] | – | IC50 [2]: 66.7 nM |
| CC(C)(C)[C@H](NC(=O)COCCOCCN1CCC(c2ccc(Oc3c(-c4ccc(F)cc4)sc4cc(O)ccc34)cc2)CC1)C(=O)N1C[C@H](O)C[C@H]1C(=O)NCc1ccc(C#N)cc1 [Compound 143] | – | IC50 [3]: 32 nM |

| SMILES | IC50 [1] | further results |
| --- | --- | --- |
| Cc1ncoc1-c1ccc([C@H](C)NC(=O)[C@@H]2C[C@@H](O)CN2C(=O)[C@@H](NC(=O)COCCOCCOCCOc2ccc(Oc3c(-c4ccc(Cl)cc4)sc4cc(O)ccc34)cc2)C(C)(C)C)cc1 [Compound 120] | – | IC50 [3]: 4.1 nM |
| O=C1CCC(N2Cc3cc(NCCCC4CCN(CCOc5ccc(Oc6c(-c7ccc(Br)cc7)sc7cc(O)ccc67)cc5)CC4)ccc3C2=O)C(=O)N1 (centres unmarked) [Compound 64] | 2.9 nM | – |
| O=C1CCC(N2Cc3c(ccc(N4CCN(CCCOc5ccc(Oc6c(-c7ccc(Br)cc7)sc7cc(O)ccc67)cc5)CC4)c3F)C2=O)C(=O)N1 (centres unmarked) [Compound 208] | – | IC50 [2]: 8.4 nM |
| CC(C)(C)[C@H](NC(=O)Cc1ccc(-c2ccn(CCOc3ccc(Oc4c(-c5ccc(F)cc5)sc5cc(O)ccc45)cc3)n2)cc1)C(=O)N1C[C@H](O)C[C@H]1C(=O)NCc1ccc(C#N)cc1 [Compound 145] | – | IC50 [3]: 97 nM |
| COc1ccc2c(Oc3ccc(OCCN4CCN(CCOCC(=O)N[C@H](C(=O)N5CCC[C@H]5C(=O)NCc5ccc(-c6scnc6C)cc5)C(C)(C)C)CC4)cc3)c(-c3ccc(Br)cc3)sc2c1 [Compound 157] | – | IC50 [3]: > 100 nM |
| O=C1CCC(N2C(=O)c3ccc(NCCCOCCOc4ccc(Oc5c(-c6ccc(Br)cc6)sc6cc(O)ccc56)cc4)cc3C2=O)C(=O)N1 (centres unmarked) [Compound 81] | 8.4 nM | – |
| CC(C)(C)[C@H](NC(=O)COCCOCCOCCOc1ccc(Oc2c(-c3ccc(F)cc3)sc3cc(O)ccc23)cc1)C(=O)N1C[C@H](O)C[C@H]1C(=O)NCc1ccc(C#N)cc1 [Compound 136] | – | IC50 [3]: 1.5 nM |
| O=C1CC[C@H](N2Cc3cc(OCC(=O)N4CCN(CCOc5ccc(Oc6c(-c7ccc(Br)cc7)sc7cc(O)ccc67)cc5)CC4)ccc3C2=O)C(=O)N1 [Compound 8] | 1.9 nM | – |
| O=C(CC1CCN(CCOc2ccc(Oc3c(-c4ccc(Br)cc4)sc4cc(O)ccc34)cc2)CC1)NCc1ccc2c(c1)CN(C1CCC(=O)NC1=O)C2=O (centres unmarked) [Compound 63] | 0.82 nM | – |
| O=C1CCC(N2C(=O)c3ccc(NCCCC4CCN(CCOc5ccc(Oc6c(-c7ccc(Br)cc7)sc7cc(O)ccc67)cc5)CC4)cc3C2=O)C(=O)N1 (centres unmarked) [Compound 68] | 5.9 nM | – |
| C[C@@H](COc1ccc(Oc2c(-c3ccc(Br)cc3)sc3cc(O)ccc23)cc1)N1CCN(CC(=O)NCc2ccc3c(c2)CN(C2CCC(=O)NC2=O)C3=O)CC1 (some centres unmarked) [Compound 12] | 2.5 nM | – |
| Cc1ncsc1-c1ccc(CNC(=O)[C@H]2C[C@H](O)CN2C(=O)[C@@H](NC(=O)COCCN2CCN(CCOc3ccc(Oc4c(-c5ccc(Br)cc5)sc5cc(O)ccc45)cc3)CC2)C(C)(C)C)cc1 [Compound 152] | – | IC50 [3]: > 100 nM |
| O=C1CCC(N2Cc3cc(N4CCN(CCOc5ccc(Oc6c(-c7ccc(Br)cc7)sc7cc(O)ccc67)cc5)CC4)ccc3C2=O)C(=O)N1 (centres unmarked) [Compound 55] | 1.8 nM | – |
| O=C1CC[C@@H](N2Cc3cc(OCCN4C[C@H]5C[C@@H]4CN5CCOc4ccc(Oc5c(-c6ccc(Br)cc6)sc6cc(O)ccc56)cc4)ccc3C2=O)C(=O)N1 [Compound 38] | 1.1 nM | – |
| Cc1ncsc1-c1ccc(CNC(=O)[C@@H]2CCCN2C(=O)[C@@H](NC(=O)COCCN2CCN(CCOc3ccc(Oc4c(-c5ccc(Br)cc5)sc5cc(O)ccc45)cc3)CC2)C(C)(C)C)cc1 [Compound 156] | – | IC50 [3]: > 100 nM |
| O=C1CCC(N2C(=O)c3cccc(NCCN4CCN(CCOc5ccc(Oc6c(-c7ccc(O)cc7)sc7cc(O)ccc67)cc5)CC4)c3C2=O)C(=O)N1 (centres unmarked) [Compound 3] | 0.14 nM | – |
| O=C1CCC(N2C(=O)c3cccc(NCCOCCOCCOCCOc4ccc(Oc5c(-c6ccc(Br)cc6)sc6cc(O)ccc56)cc4)c3C2=O)C(=O)N1 (centres unmarked) [Compound 23] | 22.4 nM | – |
| O=C1CCC(N2Cc3c(OCCOCCOc4ccc(Oc5c(-c6ccc(Br)cc6)sc6cc(O)ccc56)cc4)cccc3C2=O)C(=O)N1 (centres unmarked) [Compound 17] | 2.9 nM | – |
| O=C1CCC(N2Cc3c(cc(F)c(N4CCN(C5CC6(C5)CN(CCOc5ccc(Oc7c(-c8ccc(C(F)(F)F)cc8)sc8cc(O)ccc78)cc5)C6)CC4)c3F)C2=O)C(=O)N1 (centres unmarked) [Compound 206] | – | IC50 [2]: 13.3 nM |
| O=C1CC[C@H](N2Cc3cc(OCCN4C[C@@H]5C[C@H]4CN5CCOc4ccc(Oc5c(-c6ccc(Br)cc6)sc6cc(O)ccc56)cc4)ccc3C2=O)C(=O)N1 [Compound 42] | 0.53 nM | – |
